These are literature values, as cited in article PMC4486055 (Cancer chemotherapy and pharmacology, 2014).

Each structure is given as a SMILES string.

For the data set the following is noted: clinical development; cited from earlier work.

As for `CN[C@@H]1C[C@H]2O[C@@](C)([C@@H]1OC)n1c3ccccc3c3c4c(c5c6ccccc6n2c5c31)C(=O)N[C@H]4O` [UCN-01, 7-hydroxyl-staurosporine], the Dose-limiting toxicity entry is “prominent dose-limiting hyperglycemia”.
